Results taken from patent US10696707B2, “Polyene macrolide derivative” (Shionogi & Co., Ltd., priority 2014, dated 2020).

test system: red blood cells (5% RBC suspension); assay: Test Example 2-1: in vitro hemolytic activity test (upper limit 50, 80, 100 or 200 μmol/L); assay type: cell-based; settings: Erythrocyte, 1 h; hemolysis method 50 (upper concentration 50 μmol/L); 5% RBC suspension, 37° C., one hour; read-out: hemolysis IC50
Description: Nephrotoxic potentials of the compounds of the present invention except the compounds whose X is —N(R^F)—CO—X^1 and X^1 is the group represented by formula (III) and T is —N(R^a5)— were investigated by in vitro hemolytic activity test under the condition, in that, the upper limit was 50 μmol/L, 80 μmol/L, 100 μmol/L, or 200 μmol/L as the required concentration to 50% of hemolysis (IC50).
Defibrinated sterile blood was centrifuged at 700×g for 3 minutes and, and the supernatant was removed for 100% of red blood cells. After the cleaning with physiological saline, the washed blood cells was suspended in the medium (Earle's balanced salt sodium, bicarbonate, 0.1 g/L L-glutamine without phenol red), and was diluted by 5% (5% RBC suspension).
The washed blood was diluted by 5% in water for injection (solution of complete hemolysis), and was used as the indication of optical density for complete hemolysis.
The compounds of the present invention solution in DMSO (several and doubling dilutions starting from 2.5 mmol/L, 4 mmol/L, 5 mmol/L, or 10 mmol/L), DMSO as the negative control, and Amphotericin B as the positive control were used, and each 5 μL of these was added in to a well of V-form 96 well type microplate.
Finally, the maximum concentration of the compounds of the present invention solution in DMSO was 50 μmol/L, 80 μmol/L, 100 μmol/L, or 200 μmol/L by adding 245 μL of the medium or 5% RBC suspension into the well.
Two hundred fifty μL of the solution of complete hemolysis was added into another well and the microplate was incubated at 37° C. in 5% of CO2 concentration for an hour.
After the incubation, each 100 μL of supernatants in wells was collected by centrifugation of the microplate at 300×g for 5 minutes and was located on a well of flat-form 96 well type microplate. An absorbance of each supernatant was measured at wavelength of 540 nm.
Percent hemolysis was calculated by using the followed equation. The required concentration to 50% of hemolysis (IC50) was calculated based on the percent hemolysis. […] Hemolysis (%)=(CR−VM)×100÷(VL−VR) Where:
CR: Absorbance of 5% RBC suspension incubated with the compounds of the present invention solution in DMSO
VM: Absorbance of medium incubated with the compounds of the present invention solution in DMSO
VL: Absorbance of solution of complete hemolysis
VR: Absorbance of 5% RBC suspension incubated with DMSO
The “hemolysis method” in the table means any tests the upper concentration of above IC50 are 50 μmol/L, 80 μmol/L, 100 μmol/L or 200 μmol/L. The “>50”, “>80”, “>100” or “>200” in the table means above IC50 value exceeded the each upper concentration.

Compound | IC50 [µM]
C[C@@H]1[C@H](O)[C@@H](C)/C=C/C=C/C=C/C=C/C=C/C=C/C=C/[C@H](O[C@@H]2O[C@H](C)[C@@H](O)[C@H](N)[C@@H]2O)C[C@@H]2O[C@](O)(C[C@@H](O)C[C@@H](O)[C@H](O)CC[C@@H](O)C[C@@H](O)CC(=O)O[C@H]1C)C[C@H](O)[C@H]2NC(=O)NC1(C(=O)O)COC1 [I-252] | > 50
C[C@@H]1[C@H](O)[C@@H](C)/C=C/C=C/C=C/C=C/C=C/C=C/C=C/[C@H](O[C@@H]2O[C@H](C)[C@@H](O)[C@H](N)[C@@H]2O)C[C@@H]2O[C@](O)(C[C@@H](O)C[C@@H](O)[C@H](O)CC[C@@H](O)C[C@@H](O)CC(=O)O[C@H]1C)C[C@H](O)[C@H]2NC(=O)NC(CO[C@H]1O[C@H](CO)[C@@H](O)[C@H](O)[C@@H]1O)CO[C@H]1O[C@H](CO)[C@@H](O)[C@H](O)[C@@H]1O [I-254] | > 50

same assay, conditions: hemolysis method 50 (upper concentration 50 μmol/L); 5% RBC suspension, 37° C., one hour; read-out: hemolysis IC50

Compound | IC50 [µM]
COC(=O)CCCNC(=O)N[C@H]1[C@@H]2C[C@@H](O[C@@H]3O[C@H](C)[C@@H](O)[C@H](N)[C@@H]3O)/C=C/C=C/C=C/C=C/C=C/C=C/C=C/[C@H](C)[C@@H](O)[C@@H](C)[C@H](C)OC(=O)C[C@H](O)C[C@H](O)CC[C@@H](O)[C@H](O)C[C@H](O)C[C@](O)(C[C@@H]1O)O2 [I-55] | > 50
C[C@@H]1[C@H](O)[C@@H](C)/C=C/C=C/C=C/C=C/C=C/C=C/C=C/[C@H](O[C@@H]2O[C@H](C)[C@@H](O)[C@H](N)[C@@H]2O)C[C@@H]2O[C@](O)(C[C@@H](O)C[C@@H](O)[C@H](O)CC[C@@H](O)C[C@@H](O)CC(=O)O[C@H]1C)C[C@H](O)[C@H]2NC(=O)NCCC(N)=O [I-81] | > 50
C[C@@H]1[C@H](O)[C@@H](C)/C=C/C=C/C=C/C=C/C=C/C=C/C=C/[C@H](O[C@@H]2O[C@H](C)[C@@H](O)[C@H](N)[C@@H]2O)C[C@@H]2O[C@](O)(C[C@@H](O)C[C@@H](O)[C@H](O)CC[C@@H](O)C[C@@H](O)CC(=O)O[C@H]1C)C[C@H](O)[C@H]2NC(=O)NCCNC(N)=O [I-93] | > 50
C[C@@H]1[C@H](O)[C@@H](C)/C=C/C=C/C=C/C=C/C=C/C=C/C=C/[C@H](O[C@@H]2O[C@H](C)[C@@H](O)[C@H](N)[C@@H]2O)C[C@@H]2O[C@](O)(C[C@@H](O)C[C@@H](O)[C@H](O)CC[C@@H](O)C[C@@H](O)CC(=O)O[C@H]1C)C[C@H](O)[C@H]2NC(=O)NCC[C@H](O)CO [I-146] | > 50
C[C@@H]1[C@H](O)[C@@H](C)/C=C/C=C/C=C/C=C/C=C/C=C/C=C/[C@H](O[C@@H]2O[C@H](C)[C@@H](O)[C@H](N)[C@@H]2O)C[C@@H]2O[C@](O)(C[C@@H](O)C[C@@H](O)[C@H](O)CC[C@@H](O)C[C@@H](O)CC(=O)O[C@H]1C)C[C@H](O)[C@H]2NC(=O)N1CC(NC[C@H](O)CO)C1 [I-226] | > 50
C[C@@H]1[C@H](O)[C@@H](C)/C=C/C=C/C=C/C=C/C=C/C=C/C=C/[C@H](O[C@@H]2O[C@H](C)[C@@H](O)[C@H](N)[C@@H]2O)C[C@@H]2O[C@](O)(C[C@@H](O)C[C@@H](O)[C@H](O)CC[C@@H](O)C[C@@H](O)CC(=O)O[C@H]1C)C[C@H](O)[C@H]2NC(=O)NC1CCS(=O)(=O)C1 (stereo partly shown) [I-231] | > 50
C[C@@H]1[C@H](O)[C@@H](C)/C=C/C=C/C=C/C=C/C=C/C=C/C=C/[C@H](O[C@@H]2O[C@H](C)[C@@H](O)[C@H](N)[C@@H]2O)C[C@@H]2O[C@](O)(C[C@@H](O)C[C@@H](O)[C@H](O)CC[C@@H](O)C[C@@H](O)CC(=O)O[C@H]1C)C[C@H](O)[C@H]2NC(=O)NC(CNS(N)(=O)=O)CN(C)C (stereo partly shown) [I-234] | > 50
C[C@@H]1[C@H](O)[C@@H](C)/C=C/C=C/C=C/C=C/C=C/C=C/C=C/[C@H](O[C@@H]2O[C@H](C)[C@@H](O)[C@H](N)[C@@H]2O)C[C@@H]2O[C@](O)(C[C@@H](O)C[C@@H](O)[C@H](O)CC[C@@H](O)C[C@@H](O)CC(=O)O[C@H]1C)C[C@H](O)[C@H]2NC(=O)NCCOCCS(C)(=O)=O [I-241] | > 50
C[C@@H]1[C@H](O)[C@@H](C)/C=C/C=C/C=C/C=C/C=C/C=C/C=C/[C@H](O[C@@H]2O[C@H](C)[C@@H](O)[C@H](N)[C@@H]2O)C[C@@H]2O[C@](O)(C[C@@H](O)C[C@@H](O)[C@H](O)CC[C@@H](O)C[C@@H](O)CC(=O)O[C@H]1C)C[C@H](O)[C@H]2NC(=O)NC(CCO)C(=O)O (stereo partly shown) [I-249] | > 50
C[C@@H]1[C@H](O)[C@@H](C)/C=C/C=C/C=C/C=C/C=C/C=C/C=C/[C@H](O[C@@H]2O[C@H](C)[C@@H](O)[C@H](N)[C@@H]2O)C[C@@H]2O[C@](O)(C[C@@H](O)C[C@@H](O)[C@H](O)CC[C@@H](O)C[C@@H](O)CC(=O)O[C@H]1C)C[C@H](O)[C@H]2NC(=O)NOCC(CO)CO [I-255] | > 50
C[C@@H]1[C@H](O)[C@@H](C)/C=C/C=C/C=C/C=C/C=C/C=C/C=C/[C@H](O[C@@H]2O[C@H](C)[C@@H](O)[C@H](N)[C@@H]2O)C[C@@H]2O[C@](O)(C[C@@H](O)C[C@@H](O)[C@H](O)CC[C@@H](O)C[C@@H](O)CC(=O)O[C@H]1C)C[C@H](O)[C@H]2NC(=O)NC1(C#N)COC1 [I-258] | > 50
CCN(O)C(=O)N[C@H]1[C@@H]2C[C@@H](O[C@@H]3O[C@H](C)[C@@H](O)[C@H](N)[C@@H]3O)/C=C/C=C/C=C/C=C/C=C/C=C/C=C/[C@H](C)[C@@H](O)[C@@H](C)[C@H](C)OC(=O)C[C@H](O)C[C@H](O)CC[C@@H](O)[C@H](O)C[C@H](O)C[C@](O)(C[C@@H]1O)O2 [I-279] | > 50
CCCN(O)C(=O)N[C@H]1[C@@H]2C[C@@H](O[C@@H]3O[C@H](C)[C@@H](O)[C@H](N)[C@@H]3O)/C=C/C=C/C=C/C=C/C=C/C=C/C=C/[C@H](C)[C@@H](O)[C@@H](C)[C@H](C)OC(=O)C[C@H](O)C[C@H](O)CC[C@@H](O)[C@H](O)C[C@H](O)C[C@](O)(C[C@@H]1O)O2 [I-280] | > 50
CON(C)C(=O)N[C@H]1[C@@H]2C[C@@H](O[C@@H]3O[C@H](C)[C@@H](O)[C@H](N)[C@@H]3O)/C=C/C=C/C=C/C=C/C=C/C=C/C=C/[C@H](C)[C@@H](O)[C@@H](C)[C@H](C)OC(=O)C[C@H](O)C[C@H](O)CC[C@@H](O)[C@H](O)C[C@H](O)C[C@](O)(C[C@@H]1O)O2 [I-282] | > 50
C[C@@H]1[C@H](O)[C@@H](C)/C=C/C=C/C=C/C=C/C=C/C=C/C=C/[C@H](O[C@@H]2O[C@H](C)[C@@H](O)[C@H](N)[C@@H]2O)C[C@@H]2O[C@](O)(C[C@@H](O)C[C@@H](O)[C@H](O)CC[C@@H](O)C[C@@H](O)CC(=O)O[C@H]1C)C[C@H](O)[C@H]2NC(=O)N1CCC1C(=O)O (stereo partly shown) [I-283] | > 50

same assay, conditions: hemolysis method 80 (upper concentration 80 μmol/L); 5% RBC suspension, 37° C., one hour; read-out: hemolysis IC50

Compound | IC50 [µM]
C[C@@H]1[C@H](O)[C@@H](C)/C=C/C=C/C=C/C=C/C=C/C=C/C=C/[C@H](O[C@@H]2O[C@H](C)[C@@H](O)[C@H](N)[C@@H]2O)C[C@@H]2O[C@](O)(C[C@@H](O)C[C@@H](O)[C@H](O)CC[C@@H](O)C[C@@H](O)CC(=O)O[C@H]1C)C[C@H](O)[C@H]2NC(=O)N1CCC(N(C)C)CC1 [I-54] | > 80

same assay, conditions: hemolysis method 100 (upper concentration 100 μmol/L); 5% RBC suspension, 37° C., one hour; read-out: hemolysis IC50

Compound | IC50 [µM]
C[C@@H]1[C@H](O)[C@@H](C)/C=C/C=C/C=C/C=C/C=C/C=C/C=C/[C@H](O[C@@H]2O[C@H](C)[C@@H](O)[C@H](N)[C@@H]2O)C[C@@H]2O[C@](O)(C[C@@H](O)C[C@@H](O)[C@H](O)CC[C@@H](O)C[C@@H](O)CC(=O)O[C@H]1C)C[C@H](O)[C@H]2NC(=O)NC1CN(C)C1 [I-62] | 50
CC1C=CC=CC=CC=CC=CC=CC=CC(OC2OC(C)C(O)C(N)C2O)CC2OC(O)(CC(O)CC(O)C(O)CCC(O)CC(O)CC(=O)OC(C)C(C)C1O)CC(O)C2NC(=O)NC1CCCC1O (stereo not shown) [I-207] | > 100
C[C@@H]1[C@H](O)[C@@H](C)/C=C/C=C/C=C/C=C/C=C/C=C/C=C/[C@H](O[C@@H]2O[C@H](C)[C@@H](O)[C@H](N)[C@@H]2O)C[C@@H]2O[C@](O)(C[C@@H](O)C[C@@H](O)[C@H](O)CC[C@@H](O)C[C@@H](O)CC(=O)O[C@H]1C)C[C@H](O)[C@H]2NC(=O)N(N)CCO [I-212] | > 100
C[C@@H]1[C@H](O)[C@@H](C)/C=C/C=C/C=C/C=C/C=C/C=C/C=C/[C@H](O[C@@H]2O[C@H](C)[C@@H](O)[C@H](N)[C@@H]2O)C[C@@H]2O[C@](O)(C[C@@H](O)C[C@@H](O)[C@H](O)CC[C@@H](O)C[C@@H](O)CC(=O)O[C@H]1C)C[C@H](O)[C@H]2NC(=O)NC(C)(CO)CO [I-213] | > 100
